Assay results as given in publication PMC11859726, “HDAC/σ1R Dual-Ligand as a Targeted Melanoma Therapeutic” (Pharmaceuticals, 2025).

Assays:
UM 92-1 cells [1] = experiment: Cell proliferation, UM 92-1 cells; assay type: cell-based, human; settings: UM 92-1 cells; 3c 30 and 100 nM; pentazocine 2 μM; AC927 2 μM; Figure 3a
Method: (§1) Cells were seeded in 96-well plates at a cell-specific density, following quantification of cell numbers on counting chambers after trypsinization and staining with trypan blue. After seeding (72 h), at a cell confluence of ~50%, the medium was removed, and treatments were started with fresh media. Treatments, carried out in quadruplicate, lasted for 48 h. Then, the cells were fixed with 4% paraformaldehyde in PBS for 20 min and, after washing, stained with either 1% crystal violet in water or an acridine orange solution (50 µg/mL) for an additional 20 min. At the end of the incubations, cells were washed (3 times) with 100 μL/well of bidistilled water. Finally, for crystal violet assays, 100 μL of 10% acetic acid was added to each well, and the absorbance (λ = 590 nm) was measured with a Synergy HTX Bioteck spectrophotometer (BioSPX, Beersel, Belgium). For acridine orange assays, cell staining was evaluated by measuring the fluorescence (excitation 485/20 nm, emission 528/20 nm) with the Synergy HTX Bioteck reader.

A375 cells = experiment: Cell proliferation, CM A375 cells; assay type: cell-based, human; settings: CM A375 cells; 3c 90 and 200 nM; pentazocine 2 μM; AC927 2 μM; Figure 3b
Method: as §1

MCF7 cells = experiment: Tumor cell spreading assay, MCF7 cells; assay type: cell-based, human; settings: 100 nM, 1 h; for inhibition of cell spreading: MCF7 cells (low σ1R); for cells flat, with protrusions, Exp 1 (%) / cells flat, with protrusions, Exp 2 (%) / cells flat, with protrusions, Exp 3 (%) / rounded cells, Exp 1 (%) / rounded cells, Exp 2 (%) / rounded cells, Exp 3 (%): MCF-7, % of total cell population
Method: (§2) Adherent 92-1 and MCF-7 cells were harvested using 0.05% Trypsin-EDTA and plated in 6-well plates. After 1 h incubations with the indicated treatments, the number of cells that formed, or not, distinct protrusions (lamellipodia, filopodia) were scored with an inverted microscope (20×, EVOS cell imaging system, Thermo Fisher, Waltham, MA, USA).

endothelial C166 cells = experiment: Tube formation assay, VEGF-A-stimulated endothelial cells; assay type: cell-based, mouse; settings: for effect on VEGF-A-stimulated angiogenesis (tube lengths, mesh areas, node numbers; words): 5 µM, 3 h, VEGF-A 80 ng/mL
Method: The tube formation assay using mouse endothelial […] cells was analyzed employing Matrigel (BD, Bedford, MA, USA), as previously described. Briefly, 96-well plates coated with Matrigel (50 μL/well) were filled with 100 μL medium/well and maintained overnight. Endothelial cells were seeded at 2.5 × 10^4 cells/well and incubated (for 3 h) with VEGF-A (80 ng/mL), in the presence of the indicated treatments. Then, capillary-like structures were imaged (×4 magnification) with a CCD camera connected with an inverted EVOS microscope. Finally, ImageJ software (NIH, Bethesda, MD, USA) was employed to quantify tube formations.

UM 92-1 cells [2] = experiment: Tumor cell spreading assay, 92-1 cells; assay type: cell-based, human; settings: 1 h; for cells flat, with protrusions, Exp 1 (%) / cells flat, with protrusions, Exp 2 (%) / cells flat, with protrusions, Exp 3 (%) / rounded cells, Exp 1 (%) / rounded cells, Exp 2 (%) / rounded cells, Exp 3 (%): 92-1, % of total cell population; for inhibition of cell spreading: UM 92-1 cells, from 100 nM
Method: as §2

σ2R = target: T1, σ2R (Cavia porcellus, UniProt H0V073); experiment: σ2R radioligand binding assay ([3H]-DTG); parameters: species or system guinea pig; settings: guinea pig brain membranes; mean ± SD; read-out: Ki σ2R
T1 construct: using guinea pig brain membranes and appropriate radioligands; from tissue; host or cells: guinea pig brain membranes
T1 sequence (H0V073 1-176): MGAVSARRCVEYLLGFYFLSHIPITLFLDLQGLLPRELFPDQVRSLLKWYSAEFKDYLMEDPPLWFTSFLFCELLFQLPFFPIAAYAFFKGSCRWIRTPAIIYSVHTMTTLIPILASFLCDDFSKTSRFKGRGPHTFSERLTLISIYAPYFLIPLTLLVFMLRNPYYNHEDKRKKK
Method: (§3) Radioactivity was determined with a Beckman LS6500 scintillation counter. Inhibition constants (Ki values) were calculated with the EBDA/LIGAND program (Elsevier/Biosoft).

σ1R = target: T2, σ1R (Cavia porcellus, UniProt Q60492); experiment: σ1R radioligand binding assay ([3H]-(+)-pentazocine); parameters: species or system guinea pig
T2 construct: using guinea pig brain membranes and appropriate radioligands; from tissue; host or cells: guinea pig brain membranes
T2 sequence (Q60492 whole entry): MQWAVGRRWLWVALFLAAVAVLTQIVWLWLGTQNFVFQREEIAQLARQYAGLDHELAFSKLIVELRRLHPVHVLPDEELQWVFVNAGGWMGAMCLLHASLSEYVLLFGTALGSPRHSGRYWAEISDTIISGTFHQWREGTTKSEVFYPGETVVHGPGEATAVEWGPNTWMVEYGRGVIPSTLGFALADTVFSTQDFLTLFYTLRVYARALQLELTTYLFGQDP
Method: as §3

Row | Compound | effect on proliferation (UM 92-1 cells [1]) | effect on proliferation (A375 cells) | inhibition of cell spreading (MCF7 cells) | cells flat, with protrusions, Exp 1 (%) (MCF7 cells) | cells flat, with protrusions, Exp 2 (%) (MCF7 cells) | cells flat, with protrusions, Exp 3 (%) (MCF7 cells) | rounded cells, Exp 1 (%) (MCF7 cells) | rounded cells, Exp 2 (%) (MCF7 cells) | rounded cells, Exp 3 (%) (MCF7 cells) | effect on VEGF-A-stimulated angiogenesis (tube lengths, mesh areas, node numbers; words) (endothelial C166 cells) | cells flat, with protrusions, Exp 1 (%) (UM 92-1 cells [2]; 100 nM) | cells flat, with protrusions, Exp 2 (%) (UM 92-1 cells [2]; 100 nM) | cells flat, with protrusions, Exp 3 (%) (UM 92-1 cells [2]; 100 nM) | rounded cells, Exp 1 (%) (UM 92-1 cells [2]; 100 nM) | rounded cells, Exp 2 (%) (UM 92-1 cells [2]; 100 nM) | rounded cells, Exp 3 (%) (UM 92-1 cells [2]; 100 nM) | cells flat, with protrusions, Exp 2 (%) (UM 92-1 cells [2]; 5 µM) | cells flat, with protrusions, Exp 3 (%) (UM 92-1 cells [2]; 5 µM) | rounded cells, Exp 2 (%) (UM 92-1 cells [2]; 5 µM) | rounded cells, Exp 3 (%) (UM 92-1 cells [2]; 5 µM) | also measured
1 | CC(C)=CCN1CCC2(C)c3cc(O)ccc3CC1C2C (stereo not drawn) [PTZ, pentazocine, reference compound] | did not alter | did not alter | – | – | – | – | – | – | – | – | – | – | – | – | – | – | – | – | – | – | –
2 | CCCC(CCC)C(=O)O[C@@H](CCCN1CCC(O)(c2ccc(Cl)cc2)CC1)c1ccc(F)cc1 [(-)-1, reference compound] | – | – | unable to significantly inhibit | 45,95% | 48,03% | 40,28% | 54,05% | 51,97% | 59,72% | significantly inhibited | 33,84% | 21,33% | 34,97% | 66,16% | 78,67% | 65,03% | 13,49% | 26,09% | 86,51% | 73,91% | antiangiogenic effect in the presence of pentazocine (endothelial C166 cells; 5 µM plus σ1R agonist pentazocine 2 μM, combined score): partially and equally blocked; antiangiogenic effect in the presence of AC927 (endothelial C166 cells; 5 µM plus σ2R antagonist AC927 2 μM, combined score): partially and equally blocked; inhibition of cell spreading (UM 92-1 cells [2]): reduced UM cell spreading with seemingly higher potencies
3 | COC(=O)/C=C/c1ccc(CN2CCC(O)(c3ccc(Cl)cc3)CC2)cc1 [3c, Metil-(E)-3-(4-{[4-(4-clorofenil)-4-idrossipiperidin-1-il]methyl}phenyl)acrylate] | loss of activity | loss of activity | unable to significantly inhibit | 49,37% | 50,89% | 46,27% | 50,63% | 49,11% | 53,73% | mimicked the effects of 5c | 36,01% | 25,21% | 33,92% | 63,99% | 74,79% | 66,08% | 18,28% | 39,44% | 81,72% | 60,56% | Ki (σ2R): 1330 ± 286 nM; Ki (σ1R): 28 ± 4.4 nM; cells flat, with protrusions, Exp 1 (%) (UM 92-1 cells [2]; 5 µM): 45,38%; rounded cells, Exp 1 (%) (UM 92-1 cells [2]; 5 µM): 54,62%; inhibition of cell spreading (UM 92-1 cells [2]): significantly suppressed
